Results taken from US10988477B2 (Merck Patent GmbH, priority 2018, dated 2021).
Read-outs that look alike come from different tables or passages of the source.

Key:
[1] = target: GCN2 kinase (Homo sapiens, UniProt Q9P2K8); assay: GCN2 enzyme inhibition assay (Transcreener ADP2 fluorescence polarization); type: biochemical; conditions: 280 μM ATP
Method in brief: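 Human GCN2 (4 nM) preincubated 10 min with compound (0–8 μM) and 200 μM (RS)7 peptide in Tris-HCl pH 7.5, NaCl, MgCl2, DTT. Reaction started with 280 μM ATP, run 1 h at 25 °C. ADP detected by Transcreener fluorescence polarization. IC50 and Ki(app) fitted by tight-binding algorithm.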

[2] = target: intracellular GCN2 (phosphorylation of the GCN2 substrate eIF2α) (Homo sapiens, UniProt Q9P2K8); assay: GCN2 cellular inhibition assay (AlphaScreen SureFire P-eIF2α Ser51, borrelidin-treated U2OS cells); type: cell-based
Method in brief: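 Borrelidin at 10 μM is added to U2OS cells immediately after compound (4-fold dilution series, 40 μM top final) for 1 h at 37 °C. Phosphorylated eIF2α Ser51 in lysates is quantified by AlphaScreen and expressed as percent inhibition against borrelidin-stimulated controls.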

[3] = Enzyme activity for compounds of Formula IV, Ki(app), 25° C.
[4] = compounds of Formula IV, biomarker assay, phosphorylated eIF2α Ser51 in borrelidin-treated U2OS cells
[5] = compounds of Formula II, 4 nM GCN2 kinase
[6] = compounds of Formula II, biomarker assay, phosphorylated eIF2α Ser51 in borrelidin-treated U2OS cells

Chain of intracellular GCN2 (phosphorylation of the GCN2 substrate eIF2α) (Q9P2K8 whole entry): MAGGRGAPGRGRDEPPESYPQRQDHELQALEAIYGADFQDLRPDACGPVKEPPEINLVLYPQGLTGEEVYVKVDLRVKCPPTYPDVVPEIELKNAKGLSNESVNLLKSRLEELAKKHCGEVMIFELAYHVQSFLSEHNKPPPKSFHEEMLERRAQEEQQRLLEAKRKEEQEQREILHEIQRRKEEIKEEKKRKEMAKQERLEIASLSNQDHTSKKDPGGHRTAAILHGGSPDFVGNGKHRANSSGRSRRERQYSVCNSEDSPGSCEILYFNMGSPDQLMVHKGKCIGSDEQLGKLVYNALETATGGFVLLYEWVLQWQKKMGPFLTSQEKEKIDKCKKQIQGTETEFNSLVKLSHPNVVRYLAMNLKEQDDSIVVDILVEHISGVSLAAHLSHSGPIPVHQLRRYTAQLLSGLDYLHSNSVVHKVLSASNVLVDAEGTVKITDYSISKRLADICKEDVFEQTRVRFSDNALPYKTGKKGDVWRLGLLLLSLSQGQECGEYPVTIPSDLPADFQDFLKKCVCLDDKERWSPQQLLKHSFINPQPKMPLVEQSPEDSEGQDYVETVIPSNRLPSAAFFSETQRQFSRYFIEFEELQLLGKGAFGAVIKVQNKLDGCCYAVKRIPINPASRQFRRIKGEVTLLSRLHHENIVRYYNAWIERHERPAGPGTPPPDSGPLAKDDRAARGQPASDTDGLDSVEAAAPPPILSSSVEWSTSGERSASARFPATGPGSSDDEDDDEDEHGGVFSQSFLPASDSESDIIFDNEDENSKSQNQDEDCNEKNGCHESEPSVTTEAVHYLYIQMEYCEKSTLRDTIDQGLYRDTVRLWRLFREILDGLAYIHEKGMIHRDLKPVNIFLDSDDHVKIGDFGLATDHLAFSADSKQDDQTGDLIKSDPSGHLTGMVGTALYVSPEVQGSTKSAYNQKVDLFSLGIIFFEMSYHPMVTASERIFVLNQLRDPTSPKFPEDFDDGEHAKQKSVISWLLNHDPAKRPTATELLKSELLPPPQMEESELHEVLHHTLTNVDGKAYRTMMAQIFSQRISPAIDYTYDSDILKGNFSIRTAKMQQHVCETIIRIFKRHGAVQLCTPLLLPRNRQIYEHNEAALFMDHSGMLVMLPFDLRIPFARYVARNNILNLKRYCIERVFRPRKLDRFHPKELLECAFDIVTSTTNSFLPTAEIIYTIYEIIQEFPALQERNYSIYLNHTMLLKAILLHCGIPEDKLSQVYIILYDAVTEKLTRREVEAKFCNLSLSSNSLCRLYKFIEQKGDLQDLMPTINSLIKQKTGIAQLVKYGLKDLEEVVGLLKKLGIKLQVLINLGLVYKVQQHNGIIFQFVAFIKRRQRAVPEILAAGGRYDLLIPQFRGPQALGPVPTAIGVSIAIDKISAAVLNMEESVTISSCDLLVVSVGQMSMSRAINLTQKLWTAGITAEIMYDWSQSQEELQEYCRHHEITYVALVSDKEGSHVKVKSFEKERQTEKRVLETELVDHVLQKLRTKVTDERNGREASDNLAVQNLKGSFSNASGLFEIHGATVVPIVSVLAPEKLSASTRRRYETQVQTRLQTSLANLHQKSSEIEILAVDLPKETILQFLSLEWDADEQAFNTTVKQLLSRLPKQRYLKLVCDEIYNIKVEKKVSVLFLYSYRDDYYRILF
Chain of GCN2 kinase (Q9P2K8 whole entry): as above

Row | SMILES | Ki [1, 3] | IC50 [2, 4] | Ki [1, 5] | IC50 [2, 6] | also measured
1 | CC1C(c2cn[nH]c2)CCN1c1ccnc(-c2cnc3cnc(C(F)(F)F)cn23)n1 (stereo not shown) [IV-688, 3-(4-(2-Methyl-3-(1H-pyrazol-4-yl)pyrrolidin-1-yl)pyrimidin-2-yl)-6-(trifluoromethyl)imidazo[1,2-a]pyrazine] | 10 to 100 nM | 500 to 5000 nM | – | – | –
2 | CS(=O)(=O)N1CCCC(c2cc(-c3cnc4ccc(C(F)F)nn34)ncn2)C1 (stereo not shown) [II-21, 6-(Difluoromethyl)-3-(6-(1-(methylsulfonyl)piperidin-3-yl)pyrimidin-4-yl)imidazo[1,2-b]pyridazine] | – | – | 10 to 1000 nM | > 5000 nM | –
3 | C[C@H]1[C@@H](CNS(C)(=O)=O)C(F)(F)[C@@H](C)CN1c1cc(-c2cnc3ccc(C(F)F)nn23)ncn1 (single isomer, unassigned) [II-472] | – | – | < 10 nM | < 500 nM | –
4 | CC1C(c2c[nH]cn2)CCCN1c1ccnc(-c2cnc3cnc(C(F)(F)F)cn23)n1 (stereo not shown) [IV-389, 3-(4-(3-(1H-Imidazol-4-yl)-2-methylpiperidin-1-yl)pyrimidin-2-yl)-6-(trifluoromethyl)imidazo[1,2-a]pyrazine] | < 10 nM | 500 to 5000 nM | – | – | –
5 | CN=S(C)(=O)CC1CCCN(c2cc(-c3cnc4ccc(C(F)F)nn34)ncn2)C1 (stereo not shown) [II-26, [1-[6-[6-(Difluoromethyl)imidazo[1,2-b]pyridazin-3-yl]pyrimidin-4-yl]-3-piperidyl]methyl-methyl-methylimino-oxo-sulfane] | – | – | 10 to 1000 nM | > 5000 nM | –
6 | Brc1cn2c(-c3nccc(N4CCCC(c5c[nH]cn5)C4)n3)cnc2cn1 (stereo not shown) [IV-363, 3-(4-(3-(1H-Imidazol-4-yl)piperidin-1-yl)pyrimidin-2-yl)-6-bromoimidazo[1,2-a]pyrazine] | < 10 nM | < 500 nM | – | – | –
7 | OCC1CN(c2cc(-c3cnc4ccc(C(F)F)nn34)ncn2)CC2(CC2)O1 (stereo not shown) [II-359, (7-(6-(6-(Difluoromethyl)imidazo[1,2-b]pyridazin-3-yl)pyrimidin-4-yl)-4-oxa-7-azaspiro[2.5]octan-5-yl)methanol] | – | – | 10 to 1000 nM | > 5000 nM | –
8 | NC(=O)c1cn2c(-c3cccc(N4CCCCC4)n3)cnc2cn1 [IV-204, 3-(6-(Piperidin-1-yl)pyridin-2-yl)imidazo[1,2-a]pyrazine-6-carboxamide] | 10 to 100 nM | > 5000 nM | – | – | –
9 | CC1CN(c2cncc(-c3cnc4cnc(C(F)(F)F)cn34)n2)C(C)C(c2cn[nH]c2)N1 (stereo not shown) [IV-577, 3-(6-(2,5-Dimethyl-3-(1H-pyrazol-4-yl)piperazin-1-yl)pyrazin-2-yl)-6-(trifluoromethyl)imidazo[1,2-a]pyrazine] | < 10 nM | 500 to 5000 nM | – | – | –
10 | CC1C[S+]([O-])CCN1c1cc(-c2cnc3ccc(C(F)F)nn23)ncn1 (single isomer, unassigned) [II-355, 4-(6-(6-(Difluoromethyl)imidazo[1,2-b]pyridazin-3-yl)pyrimidin-4-yl)-3-methylthiomorpholine 1-oxide] | – | – | 10 to 1000 nM | > 5000 nM | –
11 | COC1CC(c2cn[nH]c2)CN(c2ccnc(-c3cnc4cnc(C(F)(F)F)cn34)n2)C1 (stereo not shown) [IV-396, 3-(4-(3-Methoxy-5-(1H-pyrazol-4-yl)piperidin-1-yl)pyrimidin-2-yl)-6-(trifluoromethyl)imidazo[1,2-a]pyrazine] | < 10 nM | 500 to 5000 nM | – | – | –
12 | FC(F)c1cn2c(-c3nccc(N4CCCC(c5cscn5)C4)n3)cnc2cn1 (stereo not shown) [IV-174, 4-(1-(2-(6-(Difluoromethyl)imidazo[1,2-a]pyrazin-3-yl)pyrimidin-4-yl)piperidin-3-yl)thiazole] | 100 to 1000 nM | > 5000 nM | – | – | –
13 | NCC(=O)Nc1cccc(-c2ccnc(-c3cnc4cnc(C(F)F)cn34)n2)c1 [IV-167, 2-Amino-N-(3-(2-(6-(difluoromethyl)imidazo[1,2-a]pyrazin-3-yl)pyrimidin-4-yl)phenyl)acetamide] | 100 to 1000 nM | > 5000 nM | – | – | –
14 | CCC1COC(CNS(C)(=O)=O)CN1c1cc(-c2cnc3ccc(C(F)F)nn23)ncn1 (stereo not shown) [II-267, N-((4-(6-(6-(Difluoromethyl)imidazo[1,2-b]pyridazin-3-yl)pyrimidin-4-yl)-5-ethylmorpholin-2-yl)methyl)methanesulfonamide] | – | – | 10 to 1000 nM | 500 to 5000 nM | –
15 | CC1CN(c2ccnc(-c3cnc4cnc(Cl)cn34)n2)CC(CNS(C)(=O)=O)C1(F)F (stereo not shown) [IV-5, N-((1-(2-(6-Chloroimidazo[1,2-a]pyrazin-3-yl)pyrimidin-4-yl)-4,4-difluoro-5-methylpiperidin-3-yl)methyl)methanesulfonamide] | 10 to 100 nM | 500 to 5000 nM | – | – | –
16 | O=C(O)[C@@H]1CCCN(c2cc(-c3cnc4ccc(C(F)(F)F)nn34)ncn2)C1 [II-506, (R)-1-(6-(6-(Trifluoromethyl)imidazo[1,2-b]pyridazin-3-yl)pyrimidin-4-yl)piperidine-3-carboxylic acid] | – | – | 10 to 1000 nM | > 5000 nM | –

Row | SMILES | Ki [1, 3] | IC50 [2, 4] | Ki [1, 5] | IC50 [2, 6] | also measured
17 | CS(=O)(=O)NC1CCC2(CCN(c3cc(-c4cnc5ccc(C(F)F)nn45)ncn3)C2)C1 (single isomer, unassigned) [II-100, N-(2-(6-(6-(Difluoromethyl)imidazo[1,2-b]pyridazin-3-yl)pyrimidin-4-yl)-2-azaspiro[4.4]nonan-7-yl)methanesulfonamide] | – | – | 10 to 1000 nM | 500 to 5000 nM | –
18 | C[C@@H]1C[C@@H](c2cn[nH]c2)CN(c2ccnc(-c3cnc4cnc(C(F)(F)F)cn34)n2)C1 [IV-769, 3-(4-((3R,5S)-3-methyl-5-(1H-pyrazol-4-yl)piperidin-1-yl)pyrimidin-2-yl)-6-(trifluoromethyl)imidazo[1,2-a]pyrazine] | – | < 500 nM | – | – | IC50 ([1]; compounds of Formula IV, 4 nM GCN2 kinase): 10 to 1000 nM
19 | CC1CN(c2ccnc(-c3cnc4cnc(Cl)cn34)n2)CC(c2cn[nH]c2)O1 (single isomer, unassigned) [IV-216, 4-(2-(6-Chloroimidazo[1,2-a]pyrazin-3-yl)pyrimidin-4-yl)-2-methyl-6-(1H-pyrazol-4-yl)morpholine] | < 10 nM | 500 to 5000 nM | – | – | –
20 | CC1CN(c2cc(-c3cnn4ccc(C(F)F)nc34)ccn2)CC(CNS(C)(=O)=O)C1(F)F (stereo not shown) [III-7, N-[[1-[4-[5-(Difluoromethyl)pyrazolo[1,5-a]pyrimidin-3-yl]-2-pyridyl]-4,4-difluoro-5-methyl-3-piperidyl]methyl]methanesulfonamide] | – | – | – | – | Ki ([1]; compounds of Formula III, 4 nM GCN2 kinase): < 10 nM; IC50 ([2]; compounds of Formula III, U2OS cells, 10 μM borrelidin, 1 h, read-out: GCN2 Biomarker (IC50)): 500 to 5000 nM
21 | FC(F)c1ccc2ncc(-c3cc(N4CCCC(Cn5ccnn5)C4)ncn3)n2n1 (stereo not shown) [II-327, 3-(6-(3-((1H-1,2,3-Triazol-1-yl)methyl)piperidin-1-yl)pyrimidin-4-yl)-6-(difluoromethyl)imidazo[1,2-b]pyridazine] | – | – | 10 to 1000 nM | > 5000 nM | –
22 | NC(=O)C1COCCN(c2cc(-c3cnc4ccc(C(F)F)nn34)ncn2)C1 (stereo not shown) [II-210, 4-(6-(6-(Difluoromethyl)imidazo[1,2-b]pyridazin-3-yl)pyrimidin-4-yl)-1,4-oxazepane-6-carboxamide] | – | – | 10 to 1000 nM | > 5000 nM | –
23 | NC(=O)C1CCN(c2ccnc(-c3cnc4cnc(C(F)F)cn34)n2)C1 (stereo not shown) [IV-63, 1-(2-(6-(Difluoromethyl)imidazo[1,2-a]pyrazin-3-yl)pyrimidin-4-yl)pyrrolidine-3-carboxamide] | 100 to 1000 nM | > 5000 nM | – | – | –
24 | FC(F)(F)c1ccc2ncc(-c3cc(N4CCCC(c5c[nH]cn5)C4)ncn3)n2n1 (stereo not shown) [II-715] | – | – | 10 to 1000 nM | 500 to 5000 nM | –
25 | Clc1ccc2ncc(-c3ccnc(N4CCC5CNCC5C4)c3)n2n1 (stereo not shown) [II-188] | – | – | 10 to 1000 nM | 500 to 5000 nM | –
26 | FC(F)c1cn2c(-c3nccc(N4CCCCC4)n3)cnc2cn1 [IV-103, 6-(Difluoromethyl)-3-(4-(piperidin-1-yl)pyrimidin-2-yl)imidazo[1,2-a]pyrazine] | 100 to 1000 nM | > 5000 nM | – | – | –
27 | FC(F)(F)c1cn2c(-c3nccc(N4CCC(c5c[nH]nc5C(F)(F)F)C4)n3)cnc2cn1 (stereo not shown) [IV-572, 6-(Trifluoromethyl)-3-(4-(3-(3-(trifluoromethyl)-1H-pyrazol-4-yl)pyrrolidin-1-yl)pyrimidin-2-yl)imidazo[1,2-a]pyrazine] | < 10 nM | 500 to 5000 nM | – | – | –
28 | NCS(=O)(=O)c1cccc(-c2ccnc(-c3cnc4cnc(C(F)F)cn34)n2)c1 [IV-148, ((3-(2-(6-(Difluoromethyl)imidazo[1,2-a]pyrazin-3-yl)pyrimidin-4-yl)phenyl)sulfonyl)methanamine] | 100 to 1000 nM | > 5000 nM | – | – | –
29 | CNS(=O)(=O)C1CCCN(c2ccnc(-c3cnc4cnc(C(F)F)cn34)n2)C1 (stereo not shown) [IV-164, 1-(2-(6-(Difluoromethyl)imidazo[1,2-a]pyrazin-3-yl)pyrimidin-4-yl)-N-methylpiperidine-3-sulfonamide] | 100 to 1000 nM | > 5000 nM | – | – | –
30 | Cc1ccc2ncc(-c3cc(N4CCO[C@H](CNS(C)(=O)=O)C4)ncn3)n2n1 [II-328, (S)—N-((4-(6-(6-Methylimidazo[1,2-b]pyridazin-3-yl)pyrimidin-4-yl)morpholin-2-yl)methyl)methanesulfonamide] | – | – | 10 to 1000 nM | 500 to 5000 nM | –
31 | OCCC1CN(c2cc(-c3cnc4ccc(C(F)F)nn34)ncn2)CCN1 (stereo not shown) [II-496, 2-(4-(6-(6-(Difluoromethyl)imidazo[1,2-b]pyridazin-3-yl)pyrimidin-4-yl)piperazin-2-yl)ethan-1-ol] | – | – | 10 to 1000 nM | > 5000 nM | –
32 | CS(=O)(=O)NCC1CC(O)CN(c2cc(-c3cnc4ccc(C(F)F)nn34)ccn2)C1 (stereo not shown) [II-40, N-((1-(4-(6-(Difluoromethyl)imidazo[1,2-b]pyridazin-3-yl)pyridin-2-yl)-5-hydroxypiperidin-3-yl)methyl)methanesulfonamide] | – | – | < 10 nM | < 500 nM | –
